Test system: subjects with insomnia related to rheumatoid arthritis
Assay: Arthritis Self-Efficacy Scale, clinical study of eszopiclone 3 mg vs placebo
Assay type: in vivo, human
Protocol: The study was aimed at observing the effect of eszopiclone 3 mg compared to placebo on daytime function in subjects with insomnia related to rheumatoid arthritis. The study was a multicenter, randomized, double-blind, placebo controlled, parallel group study.
A total of 153 subjects were randomized. Among them, 77 received 3 mg of eszopiclone (ESZ) nightly (at bedtime) for four weeks and 76 received matching placebo (PBO). […] In addition, subjects had insomnia symptoms including wake time after sleep onset (WASO) of ≧45 minutes, and total sleep time ≦6.5 hours. Diagnosis of rheumatoid arthritis predated the onset of insomnia symptoms.
During the double blind treatment, subjects were dosed with 3 mg eszopiclone (ESZ) or matching placebo (PBO) nightly (at bedtime) for four weeks. Data was analyzed with one-sided significance tests.

[1] = 3 mg nightly, visit 5 (Week 4), ITT
[2] = 3 mg nightly, visit 5 (Week 4), ITT, ANCOVA
[3] = 3 mg nightly, visit 6 (EOS), ITT

CN1CCN(C(=O)O[C@H]2c3nccnc3C(=O)N2c2ccc(Cl)cn2)CC1 [Eszopiclone, (+) 6-(5-chloropyrid-2-yl)-5-(4-methylpiperazin-1-yl)carbonyloxy-7-oxo-6,7-dihydro-5H-pyrrolo[3-4-b]pyrazine]
Arthritis Self-Efficacy Scale Pain subscale analyzed alone, difference (3 mg nightly vs placebo): statistically significant difference | Arthritis Self-Efficacy Scale Pain subscale in combination with Other Symptoms, difference (3 mg nightly vs placebo): statistically significant difference | effect on change from baseline to end of study (Week 4) in the Overall score for the Arthritis Self-Efficacy Scale (3 mg nightly vs placebo): significant effect | Arthritis Self-Efficacy Scale Function, Change from Baseline, 25th Percentile [1]: −1.0 | Arthritis Self-Efficacy Scale Function, Change from Baseline, 75th Percentile [1]: 13.5 | Arthritis Self-Efficacy Scale Function, Change from Baseline, Maximum [1]: 74.0 | Arthritis Self-Efficacy Scale Function, Change from Baseline, Mean (SD) [1]: 4.8 (15.7) | Arthritis Self-Efficacy Scale Function, Change from Baseline, Median [1]: 4.0 | Arthritis Self-Efficacy Scale Function, Change from Baseline, Minimum [1]: −34.0 | Arthritis Self-Efficacy Scale Function, Observed Value, 25th Percentile [1]: 45.5 | Arthritis Self-Efficacy Scale Function, Observed Value, 75th Percentile [1]: 83.5 | Arthritis Self-Efficacy Scale Function, Observed Value, Maximum [1]: 90.0 | Arthritis Self-Efficacy Scale Function, Observed Value, Mean (SD) [1]: 62.0 (22.1) | Arthritis Self-Efficacy Scale Function, Observed Value, Median [1]: 61.0 | Arthritis Self-Efficacy Scale Function, Observed Value, Minimum [1]: 13.0 | Arthritis Self-Efficacy Scale Other Symptoms, Change from Baseline, 25th Percentile [1]: −2.0 | Arthritis Self-Efficacy Scale Other Symptoms, Change from Baseline, 75th Percentile [1]: 10.0 | Arthritis Self-Efficacy Scale Other Symptoms, Change from Baseline, Maximum [1]: 41.0 | Arthritis Self-Efficacy Scale Other Symptoms, Change from Baseline, Mean (SD) [1]: 3.5 (10.5) | Arthritis Self-Efficacy Scale Other Symptoms, Change from Baseline, Median [1]: 3.0 | Arthritis Self-Efficacy Scale Other Symptoms, Change from Baseline, Minimum [1]: −26.0 | Arthritis Self-Efficacy Scale Other Symptoms, Observed Value, 25th Percentile [1]: 31.5 | Arthritis Self-Efficacy Scale Other Symptoms, Observed Value, 75th Percentile [1]: 50.0 | Arthritis Self-Efficacy Scale Other Symptoms, Observed Value, Maximum [1]: 59.0 | Arthritis Self-Efficacy Scale Other Symptoms, Observed Value, Mean (SD) [1]: 39.3 (12.7) | Arthritis Self-Efficacy Scale Other Symptoms, Observed Value, Median [1]: 40.0 | Arthritis Self-Efficacy Scale Other Symptoms, Observed Value, Minimum [1]: 6.0 | Arthritis Self-Efficacy Scale Overall, Change from Baseline, 25th Percentile [1]: −1.6 | Arthritis Self-Efficacy Scale Overall, Change from Baseline, 75th Percentile [1]: 26.0 | Arthritis Self-Efficacy Scale Overall, Change from Baseline, Maximum [1]: 124.0 | Arthritis Self-Efficacy Scale Overall, Change from Baseline, Mean (SD) [1]: 11.5 (29.3) | Arthritis Self-Efficacy Scale Overall, Change from Baseline, Median [1]: 12.0 | Arthritis Self-Efficacy Scale Overall, Change from Baseline, Minimum [1]: −74.0 | Arthritis Self-Efficacy Scale Overall, Observed Value, 25th Percentile [1]: 103.0 | Arthritis Self-Efficacy Scale Overall, Observed Value, 75th Percentile [1]: 162.5 | Arthritis Self-Efficacy Scale Overall, Observed Value, Maximum [1]: 189.0 | Arthritis Self-Efficacy Scale Overall, Observed Value, Mean (SD) [1]: 130.9 (38.2) | Arthritis Self-Efficacy Scale Overall, Observed Value, Median [1]: 132.6 | Arthritis Self-Efficacy Scale Overall, Observed Value, Minimum [1]: 27.0 | Arthritis Self-Efficacy Scale Pain and Other Symptoms, Change from Baseline, 25th Percentile [1]: 1.0 | Arthritis Self-Efficacy Scale Pain and Other Symptoms, Change from Baseline, 75th Percentile [1]: 13.0 | Arthritis Self-Efficacy Scale Pain and Other Symptoms, Change from Baseline, Maximum [1]: 50.0 | Arthritis Self-Efficacy Scale Pain and Other Symptoms, Change from Baseline, Mean (SD) [1]: 6.9 (16.4) | Arthritis Self-Efficacy Scale Pain and Other Symptoms, Change from Baseline, Median [1]: 6.0 | Arthritis Self-Efficacy Scale Pain and Other Symptoms, Change from Baseline, Minimum [1]: −46.0 | Arthritis Self-Efficacy Scale Pain and Other Symptoms, Observed Value, 25th Percentile [1]: 53.5 | Arthritis Self-Efficacy Scale Pain and Other Symptoms, Observed Value, 75th Percentile [1]: 86.0 | Arthritis Self-Efficacy Scale Pain and Other Symptoms, Observed Value, Maximum [1]: 101.0 | Arthritis Self-Efficacy Scale Pain and Other Symptoms, Observed Value, Mean (SD) [1]: 68.5 (21.1) | Arthritis Self-Efficacy Scale Pain and Other Symptoms, Observed Value, Median [1]: 69.7 | Arthritis Self-Efficacy Scale Pain and Other Symptoms, Observed Value, Minimum [1]: 14.0 | Arthritis Self-Efficacy Scale Pain, Change from Baseline, 25th Percentile [1]: −1.0 | Arthritis Self-Efficacy Scale Pain, Change from Baseline, 75th Percentile [1]: 10.5 | Arthritis Self-Efficacy Scale Pain, Change from Baseline, Maximum [1]: 30.0 | Arthritis Self-Efficacy Scale Pain, Change from Baseline, Mean (SD) [1]: 3.3 (10.5) | Arthritis Self-Efficacy Scale Pain, Change from Baseline, Median [1]: 3.0 | Arthritis Self-Efficacy Scale Pain, Change from Baseline, Minimum [1]: −37.0 | Arthritis Self-Efficacy Scale Pain, Observed Value, 25th Percentile [1]: 22.0 | Arthritis Self-Efficacy Scale Pain, Observed Value, 75th Percentile [1]: 38.0 | Arthritis Self-Efficacy Scale Pain, Observed Value, Maximum [1]: 50.0 | Arthritis Self-Efficacy Scale Pain, Observed Value, Median [1]: 28.0 | Arthritis Self-Efficacy Scale Pain, Observed Value, Minimum [1]: 8.0 | Arthritis Self-Efficacy Scale Function, Change from Baseline, Least Squares Means (SE) [2] [2]: 4.2 (1.7) | Arthritis Self-Efficacy Scale Other Symptoms, Change from Baseline, Least Squares Means (SE) [2] [2]: 3.4 (1.2) | Arthritis Self-Efficacy Scale Overall, Change from Baseline, Least Squares Means (SE) [2] [2]: 10.4 (3.2) | Arthritis Self-Efficacy Scale Pain and Other Symptoms, Change from Baseline, Least Squares Means (SE) [2] [2]: 6.6 (1.9) | Arthritis Self-Efficacy Scale Pain, Change from Baseline, Least Squares Means (SE) [2] [2]: 3.1 (1.0) | Arthritis Self-Efficacy Scale Function, Change from Baseline, 25th Percentile [3]: −1.0 | Arthritis Self-Efficacy Scale Function, Change from Baseline, 75th Percentile [3]: 14.0 | Arthritis Self-Efficacy Scale Function, Change from Baseline, Maximum [3]: 58.0 | Arthritis Self-Efficacy Scale Function, Change from Baseline, Mean (SD) [3]: 6.8 (15.6) | Arthritis Self-Efficacy Scale Function, Change from Baseline, Median [3]: 5.0 | Arthritis Self-Efficacy Scale Function, Change from Baseline, Minimum [3]: −45.0 | Arthritis Self-Efficacy Scale Function, Observed Value, 25th Percentile [3]: 45.0 | Arthritis Self-Efficacy Scale Function, Observed Value, 75th Percentile [3]: 85.0

— US7776858B2, “Methods of treatment of chronic pain using eszopiclone” (Sepracor Inc., priority 2004, dated 2010)
